Where a name gives a salt, the structure may show the parent alone.
Legend:
Format in all cases: in vivo
Male Slc-ddy mice [1] = assay: Inhibitory effect on the motor coordination (rotating rod test); settings: for Inhibitory effect on motor coordination Effect: 300 - 600 mg/10 ml/kg oral, 30 min, compared with eperisone hydrochloride; for ED50: Mus musculus, 0.5 h, read-out: ED₅₀ values for the inhibitory effect on the motor coordination
Procedure: Male Slc-ddy mice of 20 - 25 g (5 weeks old) were used in groups of 7 - 10. The test compounds were used dissolved or suspended in 0.5 % CMC or 0.5 % Tween 80 solution. Each test compound (300 - 600 mg/10 ml/kg) was orally administered to the mice, and after 30 min the mice were put on a 3-cm diameter rod rotating at a speed of 10 min⁻¹ in a direction opposite to the rotation direction, and the time of staying on it was measured to a maximum of 180 s. Those falling off of the rotating rod within 60 s were judged as having an inhibitory effect on the motor coordination and, with the number of cases as index, comparison was made with the reference compound (eperisone hydrochloride).
The mice were trained in advance to be able to stay on the rotating rod for more than 300 s, and those capable of staying on it for more than 250 s immediately before testing were used.

Male Slc-ddy mice [2] = assay: Anti-nicotinic effect (survival after intravenous nicotine bitartrate); settings: for anti-nicotinic effect compared with eperisone hydrochloride / Anti-nicotinic effect Effect: 100 mg/10 ml/kg oral; for Anti-nicotinic effect Effect: 30 min, compared with eperisone hydrochloride; for ED50: Mus musculus, 0.5 h, oral, nicotine bitartrate 3 mg/10 ml/kg i.v. after 30 min, Litchfield-Wilcoxon, 95 % confidence limit in brackets, read-out: ED₅₀ values for the anti-nicotinic effect
Procedure: Experimental Method of Male Slc-ddy mice/30 - 35 g (6 weeks old) were used as test animals in groups of 7 - 10. The test compounds (100 mg/10 ml/kg) were orally administered to the mice, and after 30 min, nicotine bitartrate (3 mg/10 ml/kg) was administered intravenously, and the number of animals killed due to tonic convulsion was counted. The surviving animals were judged as having an anti-nicotinic effect, and with the number thereof as index the comparison concerning the anti-nicotinic effect was made with the reference compound (eperisone hydrochloride).

Male Slc-ddy mice [3] = assay: Anti-strychnine effect (time from tonic convulsions to death after subcutaneous strychnine nitrate); settings: for ED50: Mus musculus, po, 0.5 h, read-out: ED₅₀ values for the anti-strychnine effect; for anti-strychnine effect compared with eperisone hydrochloride / Anti-strychnine effect Effect: 100 mg/10 ml/kg oral; for Anti-strychnine effect Effect: 30 min, compared with eperisone hydrochloride
Procedure: Strychnine is known to enhance reflex stimulation, among others, of spinal cord to induce convulsions. If this effect of strychnine can be suppressed by administration of any of the above-mentioned compounds, this compound is expected to have a central muscle relaxation effect.
Male Slc-ddy mice of 25 - 30 g (5 weeks old) were used in groups of 7 - 10.
The test compounds (100 mg/10 ml/kg) were orally administered to the mice, and after 30 min, 1.5 mg/10 ml/kg of strychnine nitrate was administered subcutaneously, and the time was measured from the occurence of tonic convulsions to the death of the animals. Cases in which this time was extended to 6 min or more were judged as corresponding to an anti-strychnine effect, and with the number of such cases as index, comparison was made with the reference compound (eperisone hydrochloride). […] The ED₅₀ values (95% confidence limit) for the anti-strychnine effect were determined by the Litchfield-Wilcoxon method and are shown in Table 3.

Acute toxicity test = settings: mouse, in vivo, po, mice, observation for 7 days, Litchfield-Wilcoxon, 95% confidence limit in brackets, read-out: LD₅₀ values (50% of lethal dose)
Procedure: (§1) Male ddy mice of 20-30 g were used as test animals in groups of 5-10. The test compounds were dissolved or suspended in 0.5 % Tween 80 aqueous solution, and orally administered to the mice. Observation was made for 7 days after administration. The LD₅₀ values (50% of lethal dose) (95% confidence limit) were determined by the Litchfield-Wilconxon method, and are shown in Table 4.

Male ddy mice = assay: Acute toxicity test; settings: oral
Procedure: as §1

[4] = oral, rotating rod 30 min after administration, falling off within 60 s counted as positive, 95% confidence limit in brackets

SMILES	Inhibitory effect on motor coordination Effect (Male Slc-ddy mice [1])	ED50 (Male Slc-ddy mice [1]; [4]) [mg/kg]	inhibitory effect on the motor coordination compared with eperisone hydrochloride (Male Slc-ddy mice [1]; oral)	anti-nicotinic effect compared with eperisone hydrochloride (Male Slc-ddy mice [2])	Anti-nicotinic effect Effect (Male Slc-ddy mice [2])	ED50 (Male Slc-ddy mice [2]) [mg/kg]	ED50 (Male Slc-ddy mice [3]) [mg/kg]	anti-strychnine effect compared with eperisone hydrochloride (Male Slc-ddy mice [3]; mice)	Anti-strychnine effect Effect (Male Slc-ddy mice [3]; mice)	LD50 at 168 h (Acute toxicity test) [mg/kg]	ED₅₀ values for the inhibitory effect on the motor coordination (Male Slc-ddy mice [1]; [4])	ED₅₀ values for the anti-strychnine effect (Male Slc-ddy mice [3]; mice, oral, strychnine nitrate 1.5 mg/10 ml/kg s.c. after 30 min, Litchfield-Wilcoxon, 95% confidence limit in brackets)	minimum lethal dose relative to the minimum amount necessary for developing a pharmacological effect (safety margin) (Male ddy mice)	LD₅₀ values (50% of lethal dose) (Male ddy mice; observation for 7 days, Litchfield-Wilcoxon, 95% confidence limit in brackets, 10080 min)
Cc1ccc(C(=O)C(C)Cn2ccnc2)cc1C (centres unmarked) [Compound 14, 3-(1H-imidazol-1-yl)-2-methyl-1-(3,4-dimethylphenyl)-propan-1-one]	0	100	stronger inhibitory effect on the motor coordination than eperisone hydrochloride	stronger anti-nicotinic effect than eperisone hydrochloride	◎	32	33	stronger anti-strychnine effect than eperisone hydrochloride	◎	209	–	–	–	–
CCc1ccc(C2(C(C)Cn3ccnc3)OCCO2)cc1 (centres unmarked) [Compound 23]	◎	210	stronger inhibitory effect on the motor coordination than eperisone hydrochloride	stronger anti-nicotinic effect than eperisone hydrochloride	◎	46	155	stronger anti-strychnine effect than eperisone hydrochloride	○	415	–	–	–	–
CCc1ccc(C(=O)C(C)CN2CCCCC2)cc1 (centres unmarked) [Eperisone hydrochloride, reference compound]	–	–	–	–	–	140	–	–	–	303	positive cases not in excess of 50%	No effect detected	the minimum lethal dose is close to the minimum amount necessary for developing a pharmacological effect	–
CCc1ccc(C(=O)C(C)Cn2ccnc2)cc1 (centres unmarked) [Hydrochloride of compound 2]	–	–	–	–	–	–	–	–	–	–	–	–	–	225 mg/kg (182-278)
